Assay [1] concerns the target T1, RibU W97Y labeled with 5MeW (Lactococcus lactis subsp. cremoris, UniProt D8KIE9, W97Y).
T1 construct: His10; made in house; host or cells: Lactococcus lactis Trp auxotroph NZ9000-trp with pMG36e-trpRS
The assay can be described thus: Fluorescence titration of RibU with RBF, 5MeW variant. The format is binding. The protocol: (§1) Fluorescence titration experiments of the different RibU constructs with RBF at 20 °C allowed estimation of the impact of W68 fluorination or 5-methylation on the binding affinity (Figure 3 and Table 5).
(§2) Figure 3 Titration of Trp analog labeled RibU W97Y proteins with RBF. The RBF fluorescence was measured at the indicated RBF concentrations in the absence (triangles) or presence (dots) of the W97Y RibU variant (see insets). The difference between these two signals were calculated to build the titration curve. This curve was used to compute the RBF Kd (see Experimental Section in the Supporting Information). […]
(§3) Binding assays – Fluorescence titrations of RibU with RBF.
(§4) The concentration of the riboflavin stock was established using a Jasco V-650 spectrophotometer with an ε435 of 12600 M-1.cm-1 The concentration of RibU-His was calculated using a Nanodrop (Thermo […]
(§5) Riboflavin was excited at 435 nm and emission was recorded between 450 nm and 700 nm using a FluoroLog 322 Spectrofluorometer (Jobin Yvon). […] Titration experiments were performed in a 1 mL quartz cuvette at 20 °C as described.13 In brief, purified and desalted RibU protein in gel filtration buffer was titrated with RBF and after each addition the emission spectrum was recorded twice, corrected for buffer emission and instrument response and integrated. […]

For assay [2], the target named is T2, RibU W97Y (Lactococcus lactis subsp. cremoris, UniProt D8KIE9, W97Y).
T2 construct: His10; made in house; host or cells: Lactococcus lactis Trp auxotroph NZ9000-trp with pMG36e-trpRS
Briefly: Fluorescence titration of RibU with RBF, natural Trp (W). The class given is binding. The procedure: as §1
(§6) Figure 3 Titration of Trp analog labeled RibU W97Y proteins with RBF. The RBF fluorescence was measured at the indicated RBF concentrations in the absence (triangles) or presence (dots) of the W97Y RibU variant (see insets). The difference between these two signals were calculated to build the titration curve. This curve was used to compute the RBF Kd (see Experimental Section in the Supporting Information). Panels from left to right present the results for RibU W97Y, labeled with 5MeW, 5FW, 5,7diFW, and 5,6,7triFW, respectively.
as §3, §4
(§7) Riboflavin was excited at 435 nm and emission was recorded between 450 nm and 700 nm using a FluoroLog 322 Spectrofluorometer (Jobin Yvon). The excitation and emission s lits were set at 1.1 nm and 3.5 nm, respectively. Titration experiments were performed in a 1 mL quartz cuvette at 20 °C as described.13 In brief, purified and desalted RibU protein in gel filtration buffer was titrated with RBF and after each addition the emission spectrum was recorded twice, corrected for buffer emission and instrument response and integrated. The integrated emission intensities were corrected for dilution and compared to the integrated emission of riboflavin collected under these conditions in the absence […]
(§8) The Kd of RBF was derived by first determining the difference in fluorescence signal between the blan k titration with only the gel filtration buffer and the titration using the protein RibU -His in buffer. The obtained curve was fitted using equation I and the program OriginLab16 with n = number of binding sites, X = total RibU concentration, and S = maximal fluorescence signal in A.U. […]

Assay [3] concerns RibU W97Y. The assay is described as above. The class given is binding, Lactococcus lactis. Particulars: extrapolation to RibU labeled with tetrafluoroTrp. The protocol:
as §1, §6, §3, §4, §7, §8

Assay [4] deals with T3, RibU W97Y labeled with 5,7diFW (Lactococcus lactis subsp. cremoris, UniProt D8KIE9, W97Y).
T3 construct: His10; made in house; host or cells: Lactococcus lactis Trp auxotroph NZ9000-trp with pMG36e-trpRS
The assay can be described thus: Fluorescence titration of RibU with RBF, 5,7diFW variant. The class given is binding. The protocol: as §1, §2, §3, §4, §5

The target in assay [5] is T4, RibU W97Y labeled with 5,6,7triFW (Lactococcus lactis subsp. cremoris, UniProt D8KIE9, W97Y).
T4 construct: His10; made in house; host or cells: Lactococcus lactis Trp auxotroph NZ9000-trp with pMG36e-trpRS
Briefly: Fluorescence titration of RibU with RBF, 5,6,7triFW variant. The format is binding. The protocol: as §1, §2, §3, §4, §5

In another assay the test system is RibU W68Y mutant. Also noted: method as in PMID 17289680. Particulars: W68Y mutant versus RibU; cited from earlier work.
For a further assay, the target named is LmrR. The arrangement: method as in Takeuchi et al. (SI ref 3, main ref 21). Particulars: 25 °C, SPR, ref Takeuchi et al. (SI ref 3, main ref 21); cited from earlier work.

T4 sequence (D8KIE9 whole entry W97Y): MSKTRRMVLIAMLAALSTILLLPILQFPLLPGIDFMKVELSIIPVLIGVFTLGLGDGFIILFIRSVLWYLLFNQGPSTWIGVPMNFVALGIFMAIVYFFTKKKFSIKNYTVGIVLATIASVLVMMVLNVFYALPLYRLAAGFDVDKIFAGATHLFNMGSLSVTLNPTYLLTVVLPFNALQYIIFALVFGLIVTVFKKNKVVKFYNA
T2 sequence (D8KIE9 whole entry W97Y): as above
T1 sequence (D8KIE9 whole entry W97Y): as above
T3 sequence (D8KIE9 whole entry W97Y): as above

On to `Cc1cc2nc3c(=O)[nH]c(=O)nc-3n(C[C@H](O)[C@H](O)[C@H](O)CO)c2cc1C` [RBF, riboflavin], for which the Kd (as a rule, a measure of binding affinity in units of concentration) turned out to be 1.2 ± 0.1 nM in assay [1], 1.8 ± 0.8 nM on RibU W97Y [2], 8.2 ± 0.9 nM in assay [4] and 24.9 ± 2.7 nM in assay [5]. On RibU W97Y [2] (RibU containing natural Trp), the “Electrostatic contribution of W68 as share of total RBF binding energy” value is 15–20%. The “Lowering of ΔG for RBF binding” value with RibU W97Y [3] was around 8 kJ/mol. In addition, in assay [5] (20 °C, up to three fluoro-atoms introduced), the “Fold lowering of the affinity by progressive fluorination of W68” value was found to be 15 fold. Further, the “Fold drop of RBF binding affinity” value with RibU W68Y mutant was around 100 fold.
`COc1cccc2c1C(=O)c1c(O)c3c(c(O)c1C2=O)C[C@@](O)(C(C)=O)C[C@@H]3O[C@H]1C[C@H](N)[C@H](O)[C@H](C)O1` [Dau, Daunomycin]: at LmrR, the Kd was 350 nM.

Source of the values: article PMC9354243, “The Role of Tryptophan in π Interactions in Proteins: An Experimental Approach” (Journal of the American Chemical Society, 2022).
